The numbers were not newly measured in PMC6606825 (Journal of Ginseng Research, 2018), which cites them from elsewhere.

Each structure is given as a SMILES string.

One series concerns P-gp. Conditions: in vitro and in situ; cited from earlier work.
The conditions of series [1]: PK data in animals and healthy individuals; cited from earlier work.
Series [2] relates to cytochrome P450 enzymes (CYPs). Particulars: in vitro; ref unpublished; cited from earlier work.

On to `CC(C)=CCC[C@](C)(O)[C@H]1CC[C@]2(C)[C@@H]1[C@H](O)C[C@@H]1[C@@]3(C)CC[C@H](O)C(C)(C)[C@@H]3CC[C@]12C` [20(S)-PPD, 20(S)-protopanaxadiol], for which the P-gp inhibition entry in the series on P-gp was “inhibit P-gp”.

For `CC(C)=CCC[C@](C)(O[C@@H]1O[C@H](CO)[C@@H](O)[C@H](O)[C@H]1O)[C@H]1CC[C@]2(C)[C@@H]1[C@H](O)C[C@@H]1[C@@]3(C)CC[C@H](O)C(C)(C)[C@@H]3CC[C@]12C` [Ginsenoside compound K, 20-O-beta-D-glucopyranosyl-20(S)-protopanaxadiol], the P-gp inhibition entry with P-gp is listed as “inhibit P-gp”. Further, the oral bioavailability entry in series [1] was “poor oral bioavailability”. In series [2], the “effects of CYPs on CK” value was “minimal effects”.
